Laboratory results: PubChem BioAssay AID1963842 (Molecular Pharmacology Branch, DTP, NCI, 2024)

System: 677734-321-R-J1-PDC complex spheroid viability
Assay: Anticancer human tumor 677734-321-R-J1-PDC patient-derived soft tissue sarcoma cell line growth inhibition [POLQ]
Conditions: for IC50: curve of first compound; for viability, T/C: stronger effect = lower value
Procedure, shortened: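 Patient-derived tumour cells were co-cultured with HUVEC and mesenchymal stem cells as multicellular spheroids at 37 °C. They were treated with POLQ inhibitors (novobiocin, ART-558, RP6685) alone or combined with other agents. Top concentrations were at or near clinical Cmax (otherwise 10 microM; SN-38 at 1 microM), decreasing in half-log steps.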

[1] = second compound 0.0316 µM, first compound 0.0316 µM
[2] = second compound 0.0316 µM, first compound 0.1 µM
[3] = second compound 0.0316 µM, first compound 0.316 µM
[4] = second compound 0.0316 µM, first compound 1 µM
[5] = second compound 0.0316 µM, first compound 3.16 µM
[6] = second compound 0.0316 µM, first compound 10 µM
[7] = second compound 0.1 µM, first compound 0.0316 µM
[8] = second compound 0.1 µM, first compound 0.1 µM
[9] = second compound 0.1 µM, first compound 0.316 µM
[10] = second compound 0.1 µM, first compound 1 µM
[11] = second compound 0.1 µM, first compound 3.16 µM
[12] = second compound 0.1 µM, first compound 10 µM
[13] = second compound 0.316 µM, first compound 0.0316 µM
[14] = second compound 0.316 µM, first compound 0.1 µM
[15] = second compound 0.316 µM, first compound 0.316 µM
[16] = second compound 0.316 µM, first compound 1 µM
[17] = second compound 0.316 µM, first compound 3.16 µM
[18] = second compound 0.316 µM, first compound 10 µM
[19] = second compound 1 µM, first compound 0.0316 µM
[20] = second compound 1 µM, first compound 0.1 µM
[21] = second compound 1 µM, first compound 0.316 µM
[22] = second compound 1 µM, first compound 1 µM
[23] = second compound 1 µM, first compound 3.16 µM
[24] = second compound 1 µM, first compound 10 µM
[25] = second compound 3.16 µM, first compound 0.0316 µM
[26] = second compound 3.16 µM, first compound 0.1 µM
[27] = second compound 3.16 µM, first compound 0.316 µM
[28] = second compound 3.16 µM, first compound 1 µM
[29] = second compound 3.16 µM, first compound 3.16 µM
[30] = second compound 3.16 µM, first compound 10 µM
[31] = second compound 10 µM, first compound 0.0316 µM
[32] = second compound 10 µM, first compound 0.1 µM
[33] = second compound 10 µM, first compound 0.316 µM
[34] = second compound 10 µM, first compound 1 µM
[35] = second compound 10 µM, first compound 3.16 µM
[36] = second compound 10 µM, first compound 10 µM
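Further: spheroids exposed to compounds for one week.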
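Wherever viability, T/C is given: 100% = vehicle DMSO treated spheroids.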

## CCc1cc2c(N3CCc4c(cc(Cn5ccnc5)cc4-c4cn(C)nc4C(F)(F)F)C3=O)ccnc2c(OC)n1 + COC1C(OC(N)=O)C(O)C(Oc2ccc3c(O)c(NC(=O)c4ccc(O)c(CC=C(C)C)c4)c(=O)oc3c2C)OC1(C)C
Second compound 0.0316 µM
  IC50: > 10 µM
Second compound 0.1 µM
  IC50: > 10 µM
Second compound 0.316 µM
  IC50: > 10 µM
Second compound 1 µM
  IC50: > 10 µM
Second compound 3.16 µM
  IC50: > 10 µM
Second compound 10 µM
  IC50: > 10 µM
[1]
  viability, T/C: 111%
[2]
  viability, T/C: 108%
[3]
  viability, T/C: 105%
[4]
  viability, T/C: 106%
[5]
  viability, T/C: 88.7%
[6]
  viability, T/C: 62.5%
[7]
  viability, T/C: 108%
[8]
  viability, T/C: 110%
[9]
  viability, T/C: 109%
[10]
  viability, T/C: 104%
[11]
  viability, T/C: 92.2%
[12]
  viability, T/C: 62.6%
[13]
  viability, T/C: 117%
[14]
  viability, T/C: 105%
[15]
  viability, T/C: 98.4%
[16]
  viability, T/C: 98.7%
[17]
  viability, T/C: 84.8%
[18]
  viability, T/C: 64.6%
[19]
  viability, T/C: 113%
[20]
  viability, T/C: 103%
[21]
  viability, T/C: 96.1%
[22]
  viability, T/C: 100%
[23]
  viability, T/C: 83.5%
[24]
  viability, T/C: 58.6%
[25]
  viability, T/C: 117%
[26]
  viability, T/C: 101%
[27]
  viability, T/C: 108%
[28]
  viability, T/C: 97.5%
[29]
  viability, T/C: 93.1%
[30]
  viability, T/C: 63.6%
[31]
  viability, T/C: 112%
[32]
  viability, T/C: 106%
[33]
  viability, T/C: 109%
[34]
  viability, T/C: 102%
[35]
  viability, T/C: 81.6%
[36]
  viability, T/C: 65%

## COc1cc2cc(C(=O)CCC(=O)O)sc2cc1OC + COC1C(OC(N)=O)C(O)C(Oc2ccc3c(O)c(NC(=O)c4ccc(O)c(CC=C(C)C)c4)c(=O)oc3c2C)OC1(C)C
Second compound 0.0316 µM
  IC50: > 10 µM
Second compound 0.1 µM
  IC50: > 10 µM
Second compound 0.316 µM
  IC50: > 10 µM
Second compound 1 µM
  IC50: > 10 µM
Second compound 3.16 µM
  IC50: > 10 µM
Second compound 10 µM
  IC50: > 10 µM
[1]
  viability, T/C: 104%
[2]
  viability, T/C: 99.5%
[3]
  viability, T/C: 103%
[4]
  viability, T/C: 96.9%
[5]
  viability, T/C: 105%
[6]
  viability, T/C: 102%
[7]
  viability, T/C: 110%
[8]
  viability, T/C: 99.6%
[9]
  viability, T/C: 97.5%
[10]
  viability, T/C: 107%
[11]
  viability, T/C: 106%
[12]
  viability, T/C: 102%
[13]
  viability, T/C: 113%
[14]
  viability, T/C: 106%
[15]
  viability, T/C: 98.8%
[16]
  viability, T/C: 102%
[17]
  viability, T/C: 111%
[18]
  viability, T/C: 102%
[19]
  viability, T/C: 109%
[20]
  viability, T/C: 102%
[21]
  viability, T/C: 104%
[22]
  viability, T/C: 109%
[23]
  viability, T/C: 105%
[24]
  viability, T/C: 102%
[25]
  viability, T/C: 108%
[26]
  viability, T/C: 104%
[27]
  viability, T/C: 114%
[28]
  viability, T/C: 110%
[29]
  viability, T/C: 109%
[30]
  viability, T/C: 103%
[31]
  viability, T/C: 112%
[32]
  viability, T/C: 101%
[33]
  viability, T/C: 109%
[34]
  viability, T/C: 99%
[35]
  viability, T/C: 111%
[36]
  viability, T/C: 111%

## O=C(Nc1ccc(O)c(NS(=O)(=O)c2ccc(F)cc2)c1)c1ccc(-c2ccccc2)cc1 + COC1C(OC(N)=O)C(O)C(Oc2ccc3c(O)c(NC(=O)c4ccc(O)c(CC=C(C)C)c4)c(=O)oc3c2C)OC1(C)C
Second compound 0.0316 µM
  IC50: 7.22 µM
Second compound 0.1 µM
  IC50: 7.58 µM
Second compound 0.316 µM
  IC50: 8.78 µM
Second compound 1 µM
  IC50: 7.48 µM
Second compound 3.16 µM
  IC50: 8.18 µM
Second compound 10 µM
  IC50: 6.87 µM
[1]
  viability, T/C: 112%
[2]
  viability, T/C: 100%
[3]
  viability, T/C: 102%
[4]
  viability, T/C: 101%
[5]
  viability, T/C: 85.9%
[6]
  viability, T/C: 35.6%
[7]
  viability, T/C: 104%
[8]
  viability, T/C: 106%
[9]
  viability, T/C: 99.2%
[10]
  viability, T/C: 101%
[11]
  viability, T/C: 101%
[12]
  viability, T/C: 33.8%
[13]
  viability, T/C: 111%
[14]
  viability, T/C: 99.9%
[15]
  viability, T/C: 104%
[16]
  viability, T/C: 106%
[17]
  viability, T/C: 97.9%
[18]
  viability, T/C: 43.8%
[19]
  viability, T/C: 108%
[20]
  viability, T/C: 109%
[21]
  viability, T/C: 110%
[22]
  viability, T/C: 101%
[23]
  viability, T/C: 92.1%
[24]
  viability, T/C: 35.8%
[25]
  viability, T/C: 109%
[26]
  viability, T/C: 101%
[27]
  viability, T/C: 108%
[28]
  viability, T/C: 103%
[29]
  viability, T/C: 84.9%
[30]
  viability, T/C: 42.7%
[31]
  viability, T/C: 103%
[32]
  viability, T/C: 108%
[33]
  viability, T/C: 102%
[34]
  viability, T/C: 100%
[35]
  viability, T/C: 81.7%
[36]
  viability, T/C: 34.6%

## COc1cccc2c1C(=O)c1c(O)c3c(c(O)c1C2=O)CC(O)(C(=O)CO)CC3OC1CC(N)C(O)C(C)O1 (stereo not drawn) + Cc1cccc(N(C)C(=O)C2C(O)CCN2c2nc(C)cc(C(F)(F)F)c2C#N)c1
Second compound 0.0316 µM
  IC50: 0.142 µM
Second compound 0.1 µM
  IC50: 0.123 µM
Second compound 0.316 µM
  IC50: 0.115 µM
Second compound 1 µM
  IC50: 0.0836 µM
Second compound 3.16 µM
  IC50: 0.0837 µM
Second compound 10 µM
  IC50: 0.0795 µM
[1]
  viability, T/C: 73.8%
[2]
  viability, T/C: 68.2%
[3]
  viability, T/C: 8.09%
[4]
  viability, T/C: 0.74%
[5]
  viability, T/C: 1.88%
[6]
  viability, T/C: 3.67%
[7]
  viability, T/C: 77.1%
[8]
  viability, T/C: 59.3%
[9]
  viability, T/C: 7.54%
[10]
  viability, T/C: 0.78%
[11]
  viability, T/C: 3.07%
[12]
  viability, T/C: 5.78%
[13]
  viability, T/C: 89.2%
[14]
  viability, T/C: 55.7%
[15]
  viability, T/C: 9.71%
[16]
  viability, T/C: 0.66%
[17]
  viability, T/C: 2.56%
[18]
  viability, T/C: 5.49%
[19]
  viability, T/C: 102%
[20]
  viability, T/C: 40.4%
[21]
  viability, T/C: 7.53%
[22]
  viability, T/C: 0.6%
[23]
  viability, T/C: 2.63%
[24]
  viability, T/C: 4.09%
[25]
  viability, T/C: 99.3%
[26]
  viability, T/C: 41%
[27]
  viability, T/C: 6.13%
[28]
  viability, T/C: 0.63%
[29]
  viability, T/C: 3.14%
[30]
  viability, T/C: 4.04%
[31]
  viability, T/C: 94%
[32]
  viability, T/C: 39%
[33]
  viability, T/C: 5.5%
[34]
  viability, T/C: 1.83%
[35]
  viability, T/C: 3.46%
[36]
  viability, T/C: 3.24%
